According to BindingDB's records for doi:10.1021/jm960069a (University of Camerino, 1996):

Molecular target: Alpha-1B adrenergic receptor (Mesocricetus auratus) (UniProt P18841)
Assay: Binding affinity towards Alpha-1B adrenergic receptor hamster smooth muscle using [3H]prazosin as radioligand

Sequence of Alpha-1B adrenergic receptor (Mesocricetus auratus) (P18841 whole entry, looked up): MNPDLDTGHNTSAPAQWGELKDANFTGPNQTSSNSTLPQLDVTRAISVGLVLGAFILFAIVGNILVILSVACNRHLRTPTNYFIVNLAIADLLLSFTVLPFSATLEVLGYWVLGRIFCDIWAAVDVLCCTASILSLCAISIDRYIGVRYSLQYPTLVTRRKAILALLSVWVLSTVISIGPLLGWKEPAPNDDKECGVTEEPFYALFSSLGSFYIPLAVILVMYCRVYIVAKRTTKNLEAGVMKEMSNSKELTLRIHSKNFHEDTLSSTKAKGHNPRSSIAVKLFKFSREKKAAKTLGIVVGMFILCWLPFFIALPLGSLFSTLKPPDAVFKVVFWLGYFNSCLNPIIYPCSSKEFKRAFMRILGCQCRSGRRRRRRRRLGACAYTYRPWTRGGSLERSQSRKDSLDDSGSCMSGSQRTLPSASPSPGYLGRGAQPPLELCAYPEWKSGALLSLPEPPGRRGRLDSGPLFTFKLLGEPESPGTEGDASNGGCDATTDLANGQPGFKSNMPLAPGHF

Compound	Ki
COc1cccc(OC)c1OCCNCC1Oc2ccccc2OC1c1ccc(C)cc1 (configuration not stated) [[2-(2,6-Dimethoxy-phenoxy)-ethyl]-(3-p-tolyl-2,3-dihydro-benzo[1,4]dioxin-2-ylmethyl)-amine]	51.4 nM
COc1cccc(OC)c1OCCNC[C@@H]1Oc2ccccc2O[C@H]1c1ccc(C)cc1 [[2-(2,6-Dimethoxy-phenoxy)-ethyl]-((2S,3S)-3-p-tolyl-2,3-dihydro-benzo[1,4]dioxin-2-ylmethyl)-amine]	21.1 nM
